Reference: patent US7977069B2, “DNA encoding a CCK-8S G-protein coupled receptor, and vectors, transformants, cell kits, and methods employing such DNA” (Daiichi Sankyo Company, Limited, priority 2003, dated 2011)

Legend:
[1] = test system: variant 3 gene product; test: Change in intracellular Ca2+ concentration in variant 3 stably expressing cell line; type: cell-based, human; settings: A23187 20 μM
Protocol: The function of variant 3 gene was analyzed using stably expressing cell line of variant 3 gene by investigating a change in intracellular calcium concentration (Ca^2+) caused by CCK-8S. The change in intracellular calcium concentration (Ca^2+) was measured using the same method described in Example 5. The stably expressing cell line of variant 3 gene was prepared using the variant 3 gene expression vector constructed in Example 7 by the method similar to the method described in Example 7.
(§1) The cell line was seeded in 96-well plates (plates with a black wall surface and transparent bottom) at 3×10^4 cells/100 μL medium/well and cultured overnight at 37° C. in the presence of 5% CO2. The next day, 50 μL of the medium was exited from each well, and 50 μL of loading buffer was added to each well to allow for a reaction at room temperature for 1 h so as to incorporate fluorescent dye contained in the loading buffer into cells. The loading buffer was prepared by the same method as described in Example 5. After the reaction, a change in the fluorescence intensity upon addition of CCK-8S was measured along with time for each well for 40 sec using FLEXstation (Molecular Devices Corp.). CCK-8S was used at a final concentration of 10 pM-1 μM. Further, A23187 was used at a final concentration of 20 μM as a positive control of the assay.

[2] = target: T1, 7tmHR gene product (Homo sapiens, UniProt O60241); test: Change in intracellular Ca2+ concentration in 7tmHR stably expressing cell line; type: cell-based; settings: A23187 20 μM
T1 construct: three kinds of full length cDNA clones were obtained; expressed in transfected cells; host or cells: CHO-K1 (7tmHR/pcDNA3.1)
Protocol: (§2) Using stably expressing cell line of a splicing variant of ph01207 gene, a change in intracellular calcium concentration (Ca^2+) caused by CCK-8S was measured using the same method described in Example 5. As the stably expressing cell line of the splicing variant of ph01207 gene, the stably expressing cell line constructed in Example 7 was used. Further, using stable expressing cell line of hk01941 gene, the same investigation was conducted. As the stably expressing cell line of hk01941 gene, the stably expressing cell line constructed in Example 7 was used. As a control, a host cell which was not transfected with 7tmHR expression vector or hk01941 expression vector was used.
as §1, with “extracted” for “exited”, “well” for “well for 40 sec”, “CCK-8S was used at a final concentration of 10 pM-1 μM. Further, A23187 was used at a final concentration of 20 μM as a positive control of the assay.” left out

[3] = test system: hk01941 gene product; test: Change in intracellular Ca2+ concentration in hk01941 stably expressing cell line; type: cell-based, human; settings: A23187 20 μM
Protocol: as §2
as §1, with “extracted” for “exited”, “well” for “well for 40 sec”, “CCK-8S was used at a final concentration of 10 pM-1 μM. Further, A23187 was used at a final concentration of 20 μM as a positive control of the assay.” left out

[4] = test system: CHO-K1 cell line; test: Change in intracellular Ca2+ concentration in non-transfected CHO-K1 host cell line (negative control cells); type: cell-based, Chinese hamster; settings: for increase in intracellular Ca2+ concentration: CHO-K1 cell line not transfected, peptide final concentration 1 nM (Example 5)
Protocol: (§3) A specific method for measuring a change in intracellular Ca^2+ concentration in the HA-ph01207#10-6 cell line produced by CCK-8S (SEQ ID NO: 14) and the results thereof are described below. HA-ph01207#10-6 cell line was seeded in 96-well plates (plates with a black wall surface and transparent bottom) at a cell count of 2×10^4/100 μL medium/well and cultured at 37° C. in the presence of 5% CO2. DMEM/F12 (Gibco) containing 10% fetal calf serum (Moregate BioTech) was used as medium. The next day, 50 μL of medium was extracted from each well, and 50 μL of loading buffer was added each well and allowed to react at room temperature for 1.5 h so as to incorporate fluorescent dye contained in the loading buffer into cells. The loading buffer was prepared by dissolving component A of the FLIPR Calcium 3 Assay Kit (Molecular Devices Corp.) with a solution in which 0.1 mL of 500 mM probenecid (Sigma) was added to 9.9 mL of component B. After the reaction, a change in the fluorescence intensity upon addition of CCK-BS (Peptide Institute, Osaka, Japan) was measured along with time for each well using FLEXstation (Molecular Devices Corp.). Measurement was also performed in a similar manner for CCK-8NS (Peptide Institute, Osaka, Japan) and CCK-4 (Peptide Institute). For CCK-8S (SEQ ID NO: 14), 0.52 mg thereof was dissolved with 4.5 mL of 1% NaHCO3 (Wako) to prepare a 0.1 mM concentration solution. For CCK-8NS, after dissolving 0.53 mg thereof with 0.50 mL of dimethylsulfoxide (DMSO, Sigma), 4.50 mL of redistilled water was added thereto to prepare a 0.1 mM concentration solution. For CCK-4, after dissolving 0.54 mg thereof with 0.46 mL of DMSO, 4.09 mL of redistilled water was added thereto to prepare a 0.2 mM concentration solution. CCK-8S (SEQ ID NO: 14), CCK-8NS and CCK-4 were each diluted with phosphate buffered saline (PBS) to make a 5 nM solution, and measurement was performed after adding 25 μL (final concentration 1 nM) of each. As a positive control that induces an increase in intracellular Ca^2+ concentration, A23187 (Calbiochem, Calif.) was used at a final concentration of 10 μM. As a negative control, CHO-K1 cell line that was used as a host in production of the HA-ph01207#10-6 cell line was used. Since the ph01207 expression vector was not transfected into the CHO-K1 cell line, the ph01207 gene product was not expressed therein.
as §2
as §1, with “extracted” for “exited”, “well” for “well for 40 sec”, “[…]” for “pM-1”, “assay. […]” for “assay.”

[5] = target: T2, protein encoded by ph01207 (Homo sapiens, UniProt O60241, DEL308-362); test: Change in intracellular Ca2+ concentration in HA-ph01207#10-6 cell line (FLIPR Calcium 3, FLEXstation); type: cell-based; settings: for rise in the intracellular Ca2+ concentration: peptide final concentration 1 nM
T2 construct: expressed in transfected cells; host or cells: CHO-K1 (HA-ph01207#10-6, FERM BP-10101)
T2 sequence (O60241 with tags, fused parts or gaps DEL308-362): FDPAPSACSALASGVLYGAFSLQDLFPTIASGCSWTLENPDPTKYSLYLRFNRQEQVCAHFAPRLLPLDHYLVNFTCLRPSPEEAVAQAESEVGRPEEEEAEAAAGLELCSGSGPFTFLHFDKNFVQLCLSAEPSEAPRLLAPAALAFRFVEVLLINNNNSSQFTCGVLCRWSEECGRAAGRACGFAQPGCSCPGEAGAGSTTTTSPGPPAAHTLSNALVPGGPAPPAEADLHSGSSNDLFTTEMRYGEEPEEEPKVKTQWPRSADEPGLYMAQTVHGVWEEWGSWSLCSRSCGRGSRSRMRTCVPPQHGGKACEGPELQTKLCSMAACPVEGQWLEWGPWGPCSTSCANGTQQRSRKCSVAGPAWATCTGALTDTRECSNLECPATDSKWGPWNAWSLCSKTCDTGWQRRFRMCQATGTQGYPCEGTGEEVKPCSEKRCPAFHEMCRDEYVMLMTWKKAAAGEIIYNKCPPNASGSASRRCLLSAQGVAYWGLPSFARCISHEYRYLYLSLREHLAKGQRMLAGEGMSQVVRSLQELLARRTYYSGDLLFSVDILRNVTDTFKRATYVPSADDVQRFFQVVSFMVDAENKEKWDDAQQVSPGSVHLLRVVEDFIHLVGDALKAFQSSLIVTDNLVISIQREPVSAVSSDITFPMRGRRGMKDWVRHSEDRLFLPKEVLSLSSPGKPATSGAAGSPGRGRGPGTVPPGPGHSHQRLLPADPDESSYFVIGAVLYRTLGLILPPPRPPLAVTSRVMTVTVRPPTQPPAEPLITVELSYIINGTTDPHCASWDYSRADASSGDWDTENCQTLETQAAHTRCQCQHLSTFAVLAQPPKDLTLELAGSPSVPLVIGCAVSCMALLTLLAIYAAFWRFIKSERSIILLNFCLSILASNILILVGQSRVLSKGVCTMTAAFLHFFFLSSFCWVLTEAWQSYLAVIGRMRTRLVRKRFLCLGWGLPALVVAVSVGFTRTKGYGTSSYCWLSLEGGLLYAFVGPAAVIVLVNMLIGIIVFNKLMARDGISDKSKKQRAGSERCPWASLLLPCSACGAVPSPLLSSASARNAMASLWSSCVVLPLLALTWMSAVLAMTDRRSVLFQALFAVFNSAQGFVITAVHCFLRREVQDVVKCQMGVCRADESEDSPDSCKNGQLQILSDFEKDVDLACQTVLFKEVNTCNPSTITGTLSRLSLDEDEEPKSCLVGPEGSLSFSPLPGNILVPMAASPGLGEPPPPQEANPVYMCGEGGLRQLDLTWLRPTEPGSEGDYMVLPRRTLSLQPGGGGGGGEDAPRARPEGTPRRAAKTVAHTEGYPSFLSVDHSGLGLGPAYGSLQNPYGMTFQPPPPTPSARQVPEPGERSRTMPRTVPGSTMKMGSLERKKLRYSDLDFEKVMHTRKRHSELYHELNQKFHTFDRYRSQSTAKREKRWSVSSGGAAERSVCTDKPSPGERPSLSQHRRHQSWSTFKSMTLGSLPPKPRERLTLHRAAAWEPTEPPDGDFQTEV
Protocol: Changes in intracellular calcium (Ca^2+) concentrations caused by CCK-8S(SEQ ID NO: 14), CCK-8NS and CCK-4 were determined using the […] expression cell lines prepared in Example 2. The cell lines prepared in Example 2 are eight lines in which the protein encoded by ph01207 expresses as a FLAG-tag fusion protein and four lines in which the protein encoded by ph01207 expresses as a HA-tag fusion protein. Among these, in this example HA-ph01207#10-6 cell line was used as a line obtained by cellular cloning of one cell line that stably expresses the protein encoded by ph01207 as a HA-tag fusion protein. Although CCK-8NS is a CCK octapeptide consisting of the same amino acid sequence as CCK-8S (SEQ ID NO: 14), the seventh tyrosine residue from the C-terminal thereof is not sulfated. CCK-4 is a tetrapeptide consisting of the amino acid residues from the C-terminus to the fourth amino acid residue of CCK-8S (SEQ ID NO: 14).
as §3, with “CCK-8S (SEQ ID NO: 14), CCK-8NS and CCK-4 were each diluted with phosphate buffered saline (PBS) to make a 5 nM solution, and measurement was performed after adding 25 μL (final concentration 1 nM) of each. As a positive control that induces an increase in intracellular Ca^2+ concentration, A23187 (Calbiochem, Calif.) was used at a final concentration of 10 μM. As a negative control, CHO-K1 cell line that was used as a host in production of the HA-ph01207#10-6 cell line was used. Since the ph01207 expression vector was not transfected into the CHO-K1 cell line, the ph01207 gene product was not expressed therein.” left out

[6] = CCK-8S administered to diabetes patients (Bo, A. et al., 2000); cited from earlier work

T1 sequence (O60241 13-1585): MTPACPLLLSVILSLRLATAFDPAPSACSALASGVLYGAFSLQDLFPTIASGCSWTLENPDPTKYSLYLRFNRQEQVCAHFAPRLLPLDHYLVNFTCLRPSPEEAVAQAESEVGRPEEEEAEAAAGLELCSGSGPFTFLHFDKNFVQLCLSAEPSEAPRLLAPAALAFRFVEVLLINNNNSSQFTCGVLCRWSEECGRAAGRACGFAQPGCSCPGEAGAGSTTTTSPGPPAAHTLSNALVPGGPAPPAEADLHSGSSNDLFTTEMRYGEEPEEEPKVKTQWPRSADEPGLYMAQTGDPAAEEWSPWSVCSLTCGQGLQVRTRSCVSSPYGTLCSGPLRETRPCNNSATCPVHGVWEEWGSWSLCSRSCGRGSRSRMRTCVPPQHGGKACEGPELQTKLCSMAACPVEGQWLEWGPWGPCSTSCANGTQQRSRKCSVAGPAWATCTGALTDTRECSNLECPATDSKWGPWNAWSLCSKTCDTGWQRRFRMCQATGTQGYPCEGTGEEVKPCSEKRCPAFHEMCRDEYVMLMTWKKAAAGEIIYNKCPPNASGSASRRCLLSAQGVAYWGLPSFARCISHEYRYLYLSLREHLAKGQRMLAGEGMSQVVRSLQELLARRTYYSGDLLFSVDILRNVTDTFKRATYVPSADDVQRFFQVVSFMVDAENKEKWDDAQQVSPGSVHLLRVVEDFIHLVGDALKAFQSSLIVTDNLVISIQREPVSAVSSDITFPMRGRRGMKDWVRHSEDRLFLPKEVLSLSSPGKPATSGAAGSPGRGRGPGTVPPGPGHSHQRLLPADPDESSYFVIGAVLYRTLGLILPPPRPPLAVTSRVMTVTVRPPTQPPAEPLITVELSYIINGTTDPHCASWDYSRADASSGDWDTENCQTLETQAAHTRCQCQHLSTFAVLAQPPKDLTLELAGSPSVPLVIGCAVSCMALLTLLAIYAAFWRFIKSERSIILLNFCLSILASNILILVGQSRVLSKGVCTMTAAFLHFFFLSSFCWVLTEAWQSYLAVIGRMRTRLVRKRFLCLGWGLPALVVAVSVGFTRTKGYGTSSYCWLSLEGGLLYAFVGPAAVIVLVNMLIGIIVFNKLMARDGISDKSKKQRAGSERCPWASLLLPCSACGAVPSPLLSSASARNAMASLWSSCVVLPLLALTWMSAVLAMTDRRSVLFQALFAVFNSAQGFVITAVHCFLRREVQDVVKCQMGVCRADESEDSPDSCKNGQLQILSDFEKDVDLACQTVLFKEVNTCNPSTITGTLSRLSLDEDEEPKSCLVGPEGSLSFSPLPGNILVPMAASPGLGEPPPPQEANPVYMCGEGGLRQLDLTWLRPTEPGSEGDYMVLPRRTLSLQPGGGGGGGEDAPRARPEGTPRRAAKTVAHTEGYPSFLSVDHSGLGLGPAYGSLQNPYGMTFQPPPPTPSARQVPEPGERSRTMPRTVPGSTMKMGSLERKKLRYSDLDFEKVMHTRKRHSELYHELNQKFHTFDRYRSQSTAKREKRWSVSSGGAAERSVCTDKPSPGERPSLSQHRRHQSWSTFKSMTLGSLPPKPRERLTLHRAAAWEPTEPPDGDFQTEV

In the case of CNc1ccc2oc(C[C@H]3O[C@@]4(CC[C@H]3C)O[C@H]([C@H](C)C(=O)c3ccc[nH]3)[C@H](C)C[C@H]4C)nc2c1C(=O)O [A23187], the “response (intracellular Ca2+) to positive control” value (shortened to “response (intracellular Ca2+)”) [1] is reported as “observed similarly”, the “response (intracellular Ca2+)” value [2] is reported as “observed similarly” and the “response (intracellular Ca2+)” value [3] is reported as “observed similarly”. The “response (intracellular Ca2+)” value ([4]; CHO-K1 host cell, A23187 20 μM (Examples 8 and 9)) was “observed similarly”.

For “CCK-4: tetrapeptide consisting of the amino acid residues from the C-terminus to the fourth residue of CCK-8S”, the “increase in intracellular Ca2+ concentration” value [4] was “no increase” and the “rise in the intracellular Ca2+ concentration” value (from here on “rise”) [5] was “not observed”.

For CCK-8 Nonsulfated form [CCK-8NS], the “increase in intracellular Ca2+ concentration” value [4] was “no increase” and the “rise” value [5] was “not observed”.

For “cholecystokinin octapeptide sulfated form [CCK-8S]”, the “increase in intracellular Ca2+ concentration” value [4] was “no increase”, the “change in intracellular calcium concentration” value ([4]; host cell not transfected with variant 3 expression vector, CCK-8S (Example 9)) was “not observed” and the “change in intracellular calcium concentration” value ([4]; host cell transfected with neither 7tmHR nor hk01941 expression vector, CCK-8S (Example 8)) was “not observed”. For the same compound, the “level of increase in the intracellular Ca2+ concentration compared with that produced by A23187” value ([5]; 1 nM CCK-8S vs 10 μM A23187) was “roughly equal”, the “rise” value [5] was “rose” and the “increase in insulin amounts” value [6] was “promoted”. For the same compound, the “increase in postcibal glucose amount” value [6] was “suppressed”.
